# What was measured:
# Type in all cases: in vivo
# [1] = system: redroot pigweed (Amaranthus retroflexus, AMARE); assay: Post-emerge test, greenhouse herbicide activity screening; settings: post-emerge, 14 days after application, rating scale 0-100
# Method in brief: (§1)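 Fourteen days after spraying, crop and weed injury was graded visually from 0, no effect, to 100, every plant dead. Test substances were dissolved in acetone and applied at 15–1000 g ai/ha with a flat-fan nozzle. Application was either pre-emergence, one day after sowing, or post-emergence at the 2–3 leaf stage.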
# [2] = system: johnsongrass (Sorghum halepense, SORHA); assay: as above; settings: post-emerge, 14 days after application, rating scale 0-100
# Method in brief: as §1
# [3] = system: ivyleaf morningglory (Ipomoea hederacea, IPOHE); assay: as above; settings: post-emerge, 14 days after application, rating scale 0-100
# Method in brief: as §1
# [4] = system: green foxtail (Setaria viridis, SETVI); assay: as above; settings: post-emerge, 14 days after application, rating scale 0-100
# Method in brief: as §1
# [5] = system: large crabgrass (Digitaria sanguinalis, DIGSA); assay: as above; settings: post-emerge, 14 days after application, rating scale 0-100
# Method in brief: as §1
# [6] = system: sicklepod (Cassia obtusifolia, CASOB); assay: as above; settings: post-emerge, 14 days after application, rating scale 0-100
# Method in brief: as §1
# [7] = system: barnyardgrass (Echinochloa crus-galli, ECHCG); assay: as above; settings: post-emerge, 14 days after application, rating scale 0-100
# Method in brief: as §1
# [8] = system: velvetleaf (Abutilon theophrasti, ABUTH); assay: as above; settings: post-emerge, 14 days after application, rating scale 0-100
# Method in brief: as §1
# [9] = system: lambsquarters (Chenopodium album, CHEAL); assay: as above; settings: post-emerge, 14 days after application, rating scale 0-100
# Method in brief: as §1
# [10] = system: redroot pigweed (Amaranthus retroflexus, AMARE); assay: Pre-emerge test, greenhouse herbicide activity screening; settings: rated 14 days after application, 0 = no damage, 100 = complete death
# Method in brief: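 Rating: 0–100 visual injury, 14 DAA. Application: acetone, 187 l/ha, 15–1000 g ai/ha, flat-fan track sprayer with nozzle 40–45 cm above soil or canopy. Post-emerge runs used 0.25% v/v surfactant on 2–3 leaf plants.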
# [11] = system: upland rice (Oryza sp., var. Tebonnet, RICE); assay: Post-emerge test, crop safety; settings: post-emerge, 14 days after application, rating scale 0-100
# Method in brief: (§2)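 Herbicidal damage is scored 0 (none) to 100 (complete plant death) two weeks after a simulated field spray. Rates span 15–1000 g ai/ha, delivered in acetone at 187 l/ha. For post-emergence treatments, plants have 2–3 leaves and the spray carries 0.25% v/v non-ionic surfactant.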
# [12] = system: field corn (Zea mays L., var. Dekalb 535, CORN); assay: Post-emerge test, crop safety; settings: post-emerge, 14 days after application, rating scale 0-100
# Method in brief: as §2
# [13] = system: upland rice (Oryza sp., var. Tebonnet, RICE); assay: Pre-emerge test, crop safety; settings: rated 14 days after application, 0 = no damage, 100 = complete death
# Method in brief: (§3)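 Plants grown in 10 cm pots of sandy loam mix received acetone-dissolved compounds through a moving flat-fan nozzle. Doses ranged from 15 to 1000 g ai/ha. Pre-emerge pots were seeded one day earlier, post-emerge pots 8–21 days earlier. Fourteen days on, each pot was graded 0–100 for damage.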
# [14] = system: field corn (Zea mays L., var. Dekalb 535, CORN); assay: Pre-emerge test, crop safety; settings: rated 14 days after application, 0 = no damage, 100 = complete death
# Method in brief: as §3
# [15] = system: johnsongrass (Sorghum halepense, SORHA); assay: Pre-emerge test, greenhouse herbicide activity screening; settings: rated 14 days after application, 0 = no damage, 100 = complete death
# Method in brief: as §2
# [16] = system: ivyleaf morningglory (Ipomoea hederacea, IPOHE); assay: as above; settings: rated 14 days after application, 0 = no damage, 100 = complete death
# Method in brief: as §2
# [17] = system: green foxtail (Setaria viridis, SETVI); assay: as above; settings: rated 14 days after application, 0 = no damage, 100 = complete death
# Method in brief: as §2
# [18] = system: large crabgrass (Digitaria sanguinalis, DIGSA); assay: as above; settings: rated 14 days after application, 0 = no damage, 100 = complete death
# Method in brief: as §2
# [19] = system: sicklepod (Cassia obtusifolia, CASOB); assay: as above; settings: rated 14 days after application, 0 = no damage, 100 = complete death
# Method in brief: as §2
# [20] = system: barnyardgrass (Echinochloa crus-galli, ECHCG); assay: as above; settings: rated 14 days after application, 0 = no damage, 100 = complete death
# Method in brief: as §2
# [21] = system: velvetleaf (Abutilon theophrasti, ABUTH); assay: as above; settings: rated 14 days after application, 0 = no damage, 100 = complete death
# Method in brief: as §2
# [22] = system: lambsquarters (Chenopodium album, CHEAL); assay: as above; settings: rated 14 days after application, 0 = no damage, 100 = complete death
# Method in brief: as §2
smiles,measurement,setting,value
COc1c(Cl)cc(F)c(-n2c(=O)cc(C(F)(F)F)n(C)c2=O)c1NC(=O)CCc1ccccc1 [2-86],phytotoxicity rating AMARE,[1]; 63 g ai/ha,100
same,phytotoxicity rating AMARE,[1]; 250 g ai/ha,100
same,phytotoxicity rating SORHA,[2]; 63 g ai/ha,70
same,phytotoxicity rating SORHA,[2]; 250 g ai/ha,100
same,phytotoxicity rating IPOHE,[3]; 63 g ai/ha,100
same,phytotoxicity rating IPOHE,[3]; 250 g ai/ha,100
same,phytotoxicity rating SETVI,[4]; 63 g ai/ha,90
same,phytotoxicity rating SETVI,[4]; 250 g ai/ha,100
same,phytotoxicity rating DIGSA,[5]; 63 g ai/ha,30
same,phytotoxicity rating DIGSA,[5]; 250 g ai/ha,95
same,phytotoxicity rating CASOB,[6]; 63 g ai/ha,100
same,phytotoxicity rating CASOB,[6]; 250 g ai/ha,100
same,phytotoxicity rating ECHCG,[7]; 63 g ai/ha,90
same,phytotoxicity rating ECHCG,[7]; 250 g ai/ha,100
same,phytotoxicity rating ABUTH,[8]; 63 g ai/ha,100
same,phytotoxicity rating ABUTH,[8]; 250 g ai/ha,100
same,phytotoxicity rating CHEAL,[9]; 63 g ai/ha,100
same,phytotoxicity rating CHEAL,[9]; 250 g ai/ha,100
same,"Pre-emerge Herbicidal Activity, phytotoxicity rating (0-100), AMARE",[10]; 63 g ai/ha,100
same,"Pre-emerge Herbicidal Activity, phytotoxicity rating (0-100), AMARE",[10]; 250 g ai/ha,100
same,phytotoxicity rating RICE,[11]; 63 g ai/ha,80
same,phytotoxicity rating RICE,[11]; 250 g ai/ha,100
same,phytotoxicity rating CORN,[12]; 63 g ai/ha,90
same,phytotoxicity rating CORN,[12]; 250 g ai/ha,100
same,"Pre-emerge phytotoxicity rating (0-100), crop damage, RICE",[13]; 63 g ai/ha,90
same,"Pre-emerge phytotoxicity rating (0-100), crop damage, RICE",[13]; 250 g ai/ha,99
same,"Pre-emerge phytotoxicity rating (0-100), crop damage, CORN",[14]; 63 g ai/ha,95
same,"Pre-emerge phytotoxicity rating (0-100), crop damage, CORN",[14]; 250 g ai/ha,99
same,"Pre-emerge Herbicidal Activity, phytotoxicity rating (0-100), SORHA",[15]; 63 g ai/ha,99
same,"Pre-emerge Herbicidal Activity, phytotoxicity rating (0-100), SORHA",[15]; 250 g ai/ha,100
same,"Pre-emerge Herbicidal Activity, phytotoxicity rating (0-100), IPOHE",[16]; 63 g ai/ha,90
same,"Pre-emerge Herbicidal Activity, phytotoxicity rating (0-100), IPOHE",[16]; 250 g ai/ha,100
same,"Pre-emerge Herbicidal Activity, phytotoxicity rating (0-100), SETVI",[17]; 63 g ai/ha,100
same,"Pre-emerge Herbicidal Activity, phytotoxicity rating (0-100), SETVI",[17]; 250 g ai/ha,100
same,"Pre-emerge Herbicidal Activity, phytotoxicity rating (0-100), DIGSA",[18]; 63 g ai/ha,100
same,"Pre-emerge Herbicidal Activity, phytotoxicity rating (0-100), DIGSA",[18]; 250 g ai/ha,100
same,"Pre-emerge Herbicidal Activity, phytotoxicity rating (0-100), CASOB",[19]; 63 g ai/ha,100
same,"Pre-emerge Herbicidal Activity, phytotoxicity rating (0-100), CASOB",[19]; 250 g ai/ha,95
same,"Pre-emerge Herbicidal Activity, phytotoxicity rating (0-100), ECHCG",[20]; 63 g ai/ha,95
same,"Pre-emerge Herbicidal Activity, phytotoxicity rating (0-100), ECHCG",[20]; 250 g ai/ha,100
same,"Pre-emerge Herbicidal Activity, phytotoxicity rating (0-100), ABUTH",[21]; 63 g ai/ha,100
same,"Pre-emerge Herbicidal Activity, phytotoxicity rating (0-100), ABUTH",[21]; 250 g ai/ha,100
same,"Pre-emerge Herbicidal Activity, phytotoxicity rating (0-100), CHEAL",[22]; 63 g ai/ha,100
same,"Pre-emerge Herbicidal Activity, phytotoxicity rating (0-100), CHEAL",[22]; 250 g ai/ha,100
COc1c(Cl)cc(F)c(-n2c(=O)cc(C(F)(F)F)n(C)c2=O)c1NC(=O)C(C)=Cc1ccccc1 [2-81],phytotoxicity rating AMARE,[1]; 63 g ai/ha,100
same,phytotoxicity rating AMARE,[1]; 250 g ai/ha,100
same,phytotoxicity rating SORHA,[2]; 63 g ai/ha,20
same,phytotoxicity rating SORHA,[2]; 250 g ai/ha,80
same,phytotoxicity rating IPOHE,[3]; 63 g ai/ha,100
same,phytotoxicity rating IPOHE,[3]; 250 g ai/ha,100
same,phytotoxicity rating SETVI,[4]; 63 g ai/ha,40
same,phytotoxicity rating SETVI,[4]; 250 g ai/ha,60
same,phytotoxicity rating DIGSA,[5]; 63 g ai/ha,20
same,phytotoxicity rating DIGSA,[5]; 250 g ai/ha,80
same,phytotoxicity rating CASOB,[6]; 63 g ai/ha,70
same,phytotoxicity rating CASOB,[6]; 250 g ai/ha,100
same,phytotoxicity rating ECHCG,[7]; 63 g ai/ha,50
same,phytotoxicity rating ECHCG,[7]; 250 g ai/ha,90
same,phytotoxicity rating ABUTH,[8]; 63 g ai/ha,100
same,phytotoxicity rating ABUTH,[8]; 250 g ai/ha,100
same,phytotoxicity rating CHEAL,[9]; 63 g ai/ha,90
same,phytotoxicity rating CHEAL,[9]; 250 g ai/ha,100
same,"Pre-emerge Herbicidal Activity, phytotoxicity rating (0-100), AMARE",[10]; 63 g ai/ha,100
same,"Pre-emerge Herbicidal Activity, phytotoxicity rating (0-100), AMARE",[10]; 250 g ai/ha,100
same,phytotoxicity rating RICE,[11]; 63 g ai/ha,60
same,phytotoxicity rating RICE,[11]; 250 g ai/ha,90
same,phytotoxicity rating CORN,[12]; 63 g ai/ha,30
same,phytotoxicity rating CORN,[12]; 250 g ai/ha,90
same,"Pre-emerge phytotoxicity rating (0-100), crop damage, RICE",[13]; 63 g ai/ha,70
same,"Pre-emerge phytotoxicity rating (0-100), crop damage, RICE",[13]; 250 g ai/ha,90
same,"Pre-emerge phytotoxicity rating (0-100), crop damage, CORN",[14]; 63 g ai/ha,0
same,"Pre-emerge phytotoxicity rating (0-100), crop damage, CORN",[14]; 250 g ai/ha,90
same,"Pre-emerge Herbicidal Activity, phytotoxicity rating (0-100), SORHA",[15]; 63 g ai/ha,90
same,"Pre-emerge Herbicidal Activity, phytotoxicity rating (0-100), SORHA",[15]; 250 g ai/ha,90
same,"Pre-emerge Herbicidal Activity, phytotoxicity rating (0-100), IPOHE",[16]; 63 g ai/ha,60
same,"Pre-emerge Herbicidal Activity, phytotoxicity rating (0-100), IPOHE",[16]; 250 g ai/ha,100
same,"Pre-emerge Herbicidal Activity, phytotoxicity rating (0-100), SETVI",[17]; 63 g ai/ha,100
same,"Pre-emerge Herbicidal Activity, phytotoxicity rating (0-100), SETVI",[17]; 250 g ai/ha,100
same,"Pre-emerge Herbicidal Activity, phytotoxicity rating (0-100), DIGSA",[18]; 63 g ai/ha,100
same,"Pre-emerge Herbicidal Activity, phytotoxicity rating (0-100), DIGSA",[18]; 250 g ai/ha,100
same,"Pre-emerge Herbicidal Activity, phytotoxicity rating (0-100), CASOB",[19]; 63 g ai/ha,90
same,"Pre-emerge Herbicidal Activity, phytotoxicity rating (0-100), CASOB",[19]; 250 g ai/ha,100
same,"Pre-emerge Herbicidal Activity, phytotoxicity rating (0-100), ECHCG",[20]; 63 g ai/ha,70
same,"Pre-emerge Herbicidal Activity, phytotoxicity rating (0-100), ECHCG",[20]; 250 g ai/ha,100
same,"Pre-emerge Herbicidal Activity, phytotoxicity rating (0-100), ABUTH",[21]; 63 g ai/ha,100
same,"Pre-emerge Herbicidal Activity, phytotoxicity rating (0-100), ABUTH",[21]; 250 g ai/ha,100
same,"Pre-emerge Herbicidal Activity, phytotoxicity rating (0-100), CHEAL",[22]; 63 g ai/ha,100
same,"Pre-emerge Herbicidal Activity, phytotoxicity rating (0-100), CHEAL",[22]; 250 g ai/ha,100
